Patent publication US8633308B2, “Compounds for preventing or treating viral infections and methods of use thereof” (The Governors of The University of Alberta, priority 2007, dated 2014)
Several values for one entry are separate records, joined by “and”; a condition that tells them apart may be missing. Equal values may be shown once. Entries after “also recorded” stand apart in the source; their conditions may differ. Read-outs that look alike come from different tables or passages of the source.

Columns and labels:
HSV-2 = experiment: Mouse vaginal infection with HSV-2 virions exposed to compound; assay type: in vivo, mice
Description: In order to determine whether an amphipathic nucleoside derivative described herein inhibited viral transmission, a model vaginal infection with a sexually transmitted virus, HSV-2, was used. […] All five mice infected with 3×10^3 infectious virions, and three of the mice infected with 10^3, had to be euthanized between days 7 and 9 due to advanced illness (FIGS. 18E and 19A-B).

HSV-1 KOS [1] = experiment: HSV-1 infectivity plaque assay, pretreated virions, Human Foreskin Fibroblasts; assay type: cell-based, herpes simplex virus type 1; conditions: HFF
Description: FIG. 8 is a line graph showing HSV-1 infectivity plotted against concentration of dUY11. […] As expected, dUY11 treated virions were equally non-infectious for Vero cells or Human Foreskin Fibroblasts.

HSV-1 [2] = experiment: HSV-1 DNA replication, Southern blot of intracellular viral DNA in infected Vero cells; assay type: cell-based, herpes simplex virus type 1; conditions: 2 μM, 5 PFU/cell, 1, 5, 18, 24 hpi
Protocol: To identify whether the amphipathic nucleoside derivatives inhibited either viral DNA replication or viral gene expression, the ability of the amphipathic nucleoside derivatives to inhibit the accumulation of HSV-1 DNA was tested.

Vero cells [3] = experiment: Cytotoxic/cytostatic effects, trypan blue exclusion cell counts; conditions: for cytotoxicity (in words): cultured cells
Vero cells [4] = test system: Vero cells
HSV-2 strain 186 = assay type: cell-based, HSV type 2; conditions: virions pretreated 5 minutes at 37° C.; Vero cells; read-out: IC50, infectivity of HSV-2 strain 186
[5] = Dispersion and stability in culture medium; assay type: physicochemical
HSV-1 [6] = experiment: High-affinity binding of HSV-1 virions, heparin competition; assay type: cell-based, herpes simplex virus type 1; conditions: 7 μM
Protocol: dUY11 was next evaluated for its ability to affect high-affinity binding. FIG. 12 is a line graph showing competition of HSV-1 binding to cells by increasing concentration of heparin. […] Inocula were cooled on ice, and then diluted (1:10) in ice-cold serum-free media with or without 7 μM dUY11. Following 15 minute adsorption onto Vero cells, unbound virions were washed away. […] Virions stripped away by these washes were then quantified by liquid scintillation. Error bars represent ranges of two experiments. […] Therefore, the amphipathic nucleoside derivatives inhibit a step between high-affinity binding and viral DNA replication.

VSV = assay type: cell-based, vesicular stomatitis virus; conditions: virions pretreated 5 minutes at 37° C.; Vero cells; read-out: IC50, infectivity of VSV
HSV-1 KOS [7] = experiment: Infectivity of progeny virions produced by treated infected Vero cells, plaque assay; assay type: cell-based, herpes simplex virus type 1
Protocol: Virions produced by cells infected and treated with said compounds after infection should therefore not be as infectious as virions produced by untreated cells. FIG. 16A is a line graph showing the reduction in infectivity of virions produced by cells treated with amphipathic nucleoside derivatives for 24 hours and plotted against drug concentration. Vero cells were infected with HSV-1 KOS at a multiplicity of infection (MOI) of 3 PFU/cell. […] Cells were harvested at 24 hpi and viral infectivity was evaluated by standard plaque assays. Error bars represent ranges of 3 or more experiments. The virions produced in the presence of dUY11 were 8 orders of magnitude less infectious than those produced by untreated cells (FIG. 16A). The experiments were then repeated, but limiting the exposure of the infected cells to dUY11 to only 1 hour, immediately after removing the viral inoculum (FIG. 16B). […] Infected cells were then incubated without drug for 22 h, then the infectivity of the progeny virions was assessed. […] Therefore, dUY11 interacts with pre-existing cellular factors that are incorporated into virions, such as membrane lipids.

HSV-1 KOS [8] = experiment: HSV-1 infectivity, Vero cells pretreated with compound, untreated virions; assay type: cell-based, herpes simplex virus type 1; conditions: IC50 5.4 μM versus 20 nM
SIN virus = assay type: cell-based, Sindbis virus; conditions: virions pretreated 5 minutes at 37° C.; Vero cells; read-out: IC50, infectivity of SIN
HSV-1 KOS [9] = experiment: Binding of radiolabeled HSV-1 virions to Vero cells; assay type: cell-based, herpes simplex virus type 1; conditions: 7 μM; adsorption at 4° C. for 1 hour
Protocol: Infectivity was inhibited by pre-treating HSV-1 virions with the amphipathic nucleoside derivatives before infection. These nucleosides may thus inhibit HSV-1 infectivity by, for example, preventing virion binding to cells. Alternatively, they may disrupt extracellular virions (i.e. have virucidal activities). […] The binding of HSV-1 virions pre-treated with dUY11 was assessed. FIG. 11 is a bar graph and photographic images showing HSV-1 binding (A) and infectivity (B). In parallel studies, [35]S-Methionine radiolabeled (approximately 4×10^5 cpm in 2.5×10^5 PFU) (A) or non-radiolabeled HSV-1 KOS (B) were pretreated with no drug (white bar), 7 μM dUY11 (striped bar), or 100 μg/ml heparin (black bar) for 5 minutes at 37° C. The samples were then cooled on ice. Inocula were diluted (1:20, 1:100) in ice-cold serum-free media supplemented with no drug, 7 μM dUY11, or 100 μg/ml heparin. Vero cells were infected with the so-pretreated virions at 4° C. for 1 hour, washed three times with ice-cold serum-free medium and lysed. Bound virions were quantified by liquid scintillation. Error bars represent ranges of three experiments (A).

HSV-1 [10] = experiment: Release of HSV-1 DNA/virions by infected Vero cells, Southern blot of extracellular viral DNA; assay type: cell-based, herpes simplex virus type 1; conditions: 2 μM, 1, 5, 18, 24 hpi
HSV-1 KOS [11] = experiment: HSV-1 infectivity plaque assay, virions pretreated with compound, Vero cells; assay type: cell-based, herpes simplex virus type 1; conditions: for potency compared with dUY11: infections of cultured cells
HSV-1 KOS [12] = experiment: HSV-1 entry, RFP reporter under HSV-1 ICP0 IE promoter in Vero cells; assay type: cell-based, herpes simplex virus type 1; conditions: virions pretreated with 2 μM; 24 hpi
HSV-2 strain 333 = assay type: cell-based, HSV type 2; conditions: virions pretreated 5 minutes at 37° C.; Vero cells; read-out: IC50, infectivity of HSV-2 strain 333
HSV-1 [13] = experiment: HSV-1 replication, cells treated only after infection with untreated virions; conditions: post-adsorption treatment of cells
Protocol: HSV-1 inocula were incubated at 37° C. for 0 or 5 minutes with 2 μM of dUY11 (left half of each panel) or with DMSO vehicle (right half of each panel). Vero cells were infected with 0.5; 5; 50; 500; 5,000; or 50,000 PFU of treated HSV-1, as indicated in the cartoon (top panel), washed and overlaid with Dulbecco's Modified Eagle Media (DMEM) supplemented with 5% fetal bovine serum (FBS) and 2% methylcellulose (MC).
Tests were performed to determine whether dUY11 preferentially targets the viral envelope or the cell membrane. […] HSV-1 KOS (200 PFU) were incubated with 0, 0.002, 0.007, 0.02, 0.07, 0.2, 0.7, 2, 7, 20 or 70 μM dUY11 for 5 minutes at 37° C. Vero cells were then infected with so-pretreated virions for 1 hour, washed and overlaid with medium supplemented with 5% FBS and 2% MC (▪). Alternatively, untreated inocula were used to infect untreated Vero cells (▴) or Vero cells pretreated at 37° C. for up to 60 minutes with 0, 2, 7, 20 or 70 μM dUY11 (●). Non-pretreated infected cells were then overlayed with medium supplemented with 5% FBS and 2% MC supplemented with 0, 2, 7, 20 or 70 μM dUY11. […] Error bars represent ranges of three or more experiments.

[14] = 10^3 or 3×10^3 HSV-2 virions exposed to 70 μM, vaginal infection
[15] = Human alphaherpesvirus 1, Vero, Table 1, read-out: IC50 (μM) on infectivity of HSV-1 on Vero cells

## O=c1[nH]c(=O)n([C@H]2C[C@H](O)[C@@H](CO)O2)cc1C#Cc1ccc2c3cccc4cccc(c5cccc1c52)c43 [dUY11]
HSV-2; [14]
  mice shedding detectable infectious virus: None of the ten mice
  mice showing clinical signs of infection: None of the ten mice
HSV-2; virions exposed to 70 μM
  protection of mice from vaginal (genital) infection: protects mice from genital infection; also recorded: protects from vaginal infection with HSV-2; also recorded: non-infectious to mice
HSV-1 KOS [1]; 700 nM
  infectivity with virions pretreated with 700 nM: fully inhibited
HSV-1 KOS [1]; virions pretreated 5 minutes at 37° C.
  IC50: 20 nM
HSV-1 [2]
  inhibition of HSV-1 DNA replication (intracellular viral DNA): does not inhibit HSV-1 DNA replication; also recorded: does not inhibit viral DNA replication at any time tested
Vero cells [3]; 50% cytotoxicity not reached
  safety index (SI): > 7,500
Vero cells [4]
  cytotoxicity (in words): non-cytotoxic
HSV-2 strain 186
  IC50: 49 nM
[5]; 150 μM
  stability in medium: not stable in medium for long periods
[5]; culture media
  concentration at which homogeneously dispersed in media: up to 70,000 nM
HSV-1 [6]
  virucidal activity: not virucidal
HSV-1 [6]; heparin washes 0 to 1,000 μg/ml
  block of low- or high-affinity binding: does not block either low- or high-affinity binding; also recorded: does not block high-affinity binding
VSV
  IC50: 6 nM
HSV-1 KOS [7]; cells exposed for only 1 hour
  IC50: 3900 nM
HSV-1 KOS [7]; cells exposed for only 1 hour after removing inoculum
  reduction in infectivity of virions budded from treated cells: 6 orders of magnitude
HSV-1 KOS [7]; cells treated for 24 or only 1 hours
  effect on infectivity of progeny virions (in words): inhibits the infectivity of progeny virions
HSV-1 KOS [7]; cells treated for 24 hours after infection, up to 2 μM
  reduction in infectivity of virions produced by treated cells: 8 orders of magnitude
HSV-1 KOS [8]
  fold higher concentration for cell pretreatment versus virion pretreatment: 270 fold
SIN virus
  IC50: 58 nM
HSV-1 KOS [9]
  inhibition of HSV-1 virion binding to cells: did not inhibit virion binding; also recorded: does not inhibit HSV-1 binding
HSV-1 [10]
  inhibition of release of HSV-1 DNA (extracellular viral DNA): does not inhibit the release of progeny HSV-1 DNA
HSV-1 KOS [11]; 20 nM (IC50) at 37° C., Vero cells
  time to inhibit HSV-1 infectivity by 50%: 220 s
HSV-1 KOS [11]; 700 nM, Vero cells
  infectivity with virions pretreated with 700 nM: fully inhibited
HSV-1 KOS [11]; 2 μM, inocula incubated 0 or 5 min at 37° C.
  effect on viral infectivity, plaque assay: inhibits viral infectivity
HSV-1 KOS [11]; 7 μM
  infectivity in parallel to binding study: did abrogate infectivity
HSV-1 KOS [11]; Table 1, read-out: IC50 (μM) on infectivity of HSV-1 on Vero cells
  IC50: 0.05 µM
HSV-1 KOS [11]; up to 70 μM
  maximum inhibition, virion pretreatment: 100%
HSV-1 KOS [11]; virions pretreated 5 minutes at 37° C., Vero cells, calculated graphically, read-out: IC50, HSV-1 infectivity
  IC50: 0.02 µM and 0.025 µM and 0.024 µM
HSV-1 KOS [12]
  HSV-1 entry (RFP expression in reporter cells): no detectable fluorescence; also recorded: inhibits HSV-1 entry
HSV-2 strain 333
  IC50: 65 nM
HSV-1 [13]
  effect on viral replication when added after infection: no effect on viral replication; also recorded: no effect on HSV-1 replication

## O=c1[nH]c(=O)n([C@H]2CC[C@@H](CO)O2)cc1C#Cc1ccc2c3cccc4cccc(c5cccc1c52)c43 [ddUY11, 5-(Perylen-3-ylethynyl)-2′,3′-dideoxyuridine]
Vero cells [3]
  cytotoxicity (in words): neither were cytotoxic
HSV-1 KOS [11]; [15]
  IC50: 0.045 µM
HSV-1 KOS [11]
  potency compared with dUY11: approximately as potent as dUY11

## O=c1[nH]c(=O)n([C@@H]2O[C@H](CO)C(O)C2O)cc1C#Cc1ccc2c3cccc4cccc(c5cccc1c52)c43 (some centres unmarked) [aUY11, 5-(Perylen-3-ylethynyl)-arabino-uridine]
Vero cells [3]
  cytotoxicity (in words): neither were cytotoxic
HSV-1 KOS [11]; [15]
  IC50: 0.075 µM
HSV-1 KOS [11]
  potency compared with dUY11: approximately as potent as dUY11
